Experimental data as given in patent US8197860B2, “Method for enhancing nutrient absorption with astragalosides” (Nuliv Holding Inc., priority 2005, dated 2012).

Experiments:
Format in all cases: cell-based, human
Caco2 cells [1] = assay: Glucose uptake assay; parameters: key to * (regulatory effect on glucose uptake): ↑: the arrows that point up represent the enhancing effect on the glucose uptake; conditions: for Regulatory effects on the glucose uptake of the Caco2 cells: Table 2 summary; for Uptake rate (glucose): 48 hours, 25 mM glucose
Description: (§1) To evaluate the effect of the isolated astragaloside compound on the uptake of nutrient substances across the intestinal lumen, Caco-2 cells were grown on permeable filter as an experimental model. Caco2 cells originate from human colonic adenocarcinoma and spontaneously differentiate into an enterocyte-like phenotype after two weeks. The Caco-2 cell line, derived from a human colorectal carcinoma, has been used as an in vitro model system for studying drug absorption in gastrointestinal tract. These cells form monolayers with well-developed tight-junctions, and have been evaluated in details as an in vitro model to study both transcellular transport of nutrients and drugs in intestinal lumen.
(§2) Caco-2 cells were obtained from the ATCC (American Type Culture Collection). The cells were maintained in Dulbecco's modified Eagle medium (DMEM) containing 4.5 g/L glucose and 25 mM Hepes, supplemented with 10% fetal calf serum, 100 U/mL penicillin G and […]. The medium was changed every second day. The cells were routinely checked for Mycoplasma in monthly intervals. Caco-2 cells were cultured on semi-permeable membranes to differentiate into a highly functionalized epithelial barrier with remarkable morphological and biochemical similarity to the small intestinal columnar epithelium. The Caco-2 cell monolayers could therefore be used to study the membrane transport properties of many compounds. To trypsinize the cells, the culture dish was washed once with phosphate-buffered saline (PBS) followed by adding trypsine-EDTA for 10 minutes. The trypsinized cells were separated and filtered into single cells using a 35-μm strainer cap (Falcon 2235) before being seeded for further experiments.
(§3) Caco-2 cells (5×10^4) were seeded in a 48-well plate and maintained in culture medium (DMEM with 10% FBS, 1% nonessential amino acids, L-glutamine, penicillin G (100 U/mL), streptomycin (10 μg/mL), and amphotericin B (2.5 μg/mL) in a 37° C. incubator for 10 days for the cells to differentiate. The culture medium was changed once every two days. The cells were then washed with PBS before replenishing with the culture medium containing 5% FBS and various astragalosides at the indicated concentrations (0.01, 0.1 and 1 μM) for 48 hours. The Caco2 cells were washed out of remaining glucose with PBS and replaced in the glucose buffer (80 mM NaCl, 100 mM mannitol, 20 mM Tris-HCl, pH 7.4, 3 mM K2HPO4, 1 mM CaCl2, 1 mg/mL BSA) for 1 hour. Glucose uptake was initiated by replacing the glucose buffer with 0.2 ml of glucose buffer containing 2 μCi/mL of ^14C-glucose and unlabeled cold glucose to give a final glucose concentration of 25 mM. Glucose uptake was stopped by removing the glucose buffer and washing with PBS at designated time intervals. The cells were lysed in 0.2 mL of 0.2 N NaOH, and 20 μL of the cell lysate were transferred to the filter-bottomed UniFilter plates (Perkin-Elmer, Wellesley, Mass., USA) and dried in a vacuum oven at 37° C. The bottom of the UniFilter plate was sealed and 25 μL of the counting solution were added into each well. Adhesive plate sealers were used in place of the lids and radioactivity of each sample was counted using the microplate liquid scintillation counter (TopCount, Packard NXT, Packard BioScience Company, Meriden, Conn., USA). The amount of glucose accumulated in the cells was calculated and normalized to protein concentration, and uptake rate was expressed as nanomoles of glucose per minutes per milligram of cell protein (nmol/min/mg). Protein concentration was determined by a standard Bicinchoninic acid (BCA) protein assay. Nonspecific glucose uptake was measured by adding 2 μCi of L-[^14C]-glucose and subtracting from each determination to obtain specific glucose uptake.

Caco-2 cell monolayer [2] = assay: Arginine absorption assay (transport across Caco-2 cell monolayer); parameters: key to * (regulatory effect on arginine transport): ↑: the arrows that point up represent the enhancing effect on the arginine transport; conditions: for Regulatory effects on the arginine transport across the Caco2 cell monolayer: Table 3 summary; for Transport rate (arginine): 10 mM L-arginine apical
Description: as §1, §2
(§4) In measuring transport of arginine across the Caco-2 cell monolayer, both sides of the transwells were washed with arginine incubation buffer consisting of: 137 mM NaCl, 10 mM Hepes, 0.3 mM NaH2PO4, 0.3 mM K2HPO4, 5.4 mM KCl, 2.8 mM CaCl2, 1 mM MgSO4, 10 mM glucose, adjusted to pH 7.4. Then, the cell layer was preincubated in the incubation buffer at 37° C. for 1 h. The volume of incubation buffer was 0.2 mL and 0.9 mL in the apical and basolateral chambers, respectively. The cells were replaced with fresh incubation medium in both chambers prior to the transport experiment. The transport experiment was initiated by replacing the incubation solution on the apical side with solution containing 10 mM of L-arginine in which 0.125 μCi/mL of L-[^3H]-arginine was included. At designated time intervals, 10 μL-solution samples were removed from the basolateral side and radioactivity of each sample was counted using a microplate liquid scintillation counter (TopCount, Packard NXT). During the experiment, when a 10 μL-solution sample was removed from the basolateral side every time, 10 μL buffer was supplemented to keep the volume constant. The uptake of [^3H]-mannitol was used to correct for nonspecific transport of molecules across the monolayer membrane. Results were expressed as the nanomoles of arginine transport across the Caco-2 cell monolayers with respect to time in minutes (nmol/min).

Caco-2 cell monolayer [3] = assay: Tryptophan absorption assay (transport across Caco-2 cell monolayer); parameters: key to * (regulatory effect on tryptophan transport): ↑: the arrows that point up represent the enhancing effect on the tryptophan transport; conditions: for Regulatory effects on the tryptophan transport across the Caco2 cell monolayer: Table 4 summary
Description: as §1, §2, §4
The experimental procedures similar to those in Example 2 were used for measuring the uptake of tryptophan molecules across the Caco-2 membrane, except using a tryptophan incubation buffer consisting of 137 mM choline chloride, 10 mM Hepes, 0.6 mM KH2PO4, 5.4 mM KCl, 2.8 mM CaCl2, 1 mM MgSO4, and 10 mM glucose, and having its pH adjusted to 7.4. Results were expressed as the nanomoles of tryptophan transport across the Caco-2 cell monolayers with respect to time in minutes (nmol/min).

Caco2 cells [4] = assay: Folate uptake assay; parameters: key to * (regulatory effect on folate uptake): ↑: the arrows that point up represent the enhancing effect on folate uptake; conditions: for * (regulatory effect on folate uptake) / Percentage (folate uptake vs own control) / Uptake rate (folate): compound 0.1 μM; for Uptake rate (folate): 2 days, 5 μM folate, pH 6.0
Description: as §1, §2, §3
The Caco2 cells were subjected to folate uptake test in a manner similar to that described in the glucose uptake assay in Example 1 above. […]

Row | Compound | Regulatory effects on the glucose uptake of the Caco2 cells (Caco2 cells [1]) | * (regulatory effect on glucose uptake) (Caco2 cells [1]; compound 0.01 μM) | Percentage (glucose uptake, control = 100) (Caco2 cells [1]; compound 0.01 μM) [%] | Uptake rate (glucose) (Caco2 cells [1]; compound 0.01 μM) [nmol/mg/min] | * (regulatory effect on glucose uptake) (Caco2 cells [1]; compound 0.1 μM) | Percentage (glucose uptake, control = 100) (Caco2 cells [1]; compound 0.1 μM) [%] | Uptake rate (glucose) (Caco2 cells [1]; compound 0.1 μM) [nmol/mg/min] | Percentage (glucose uptake, control = 100) (Caco2 cells [1]; compound 1 μM) [%] | Uptake rate (glucose) (Caco2 cells [1]; compound 1 μM) [nmol/mg/min] | Regulatory effects on the arginine transport across the Caco2 cell monolayer (Caco-2 cell monolayer [2]) | * (regulatory effect on arginine transport) (Caco-2 cell monolayer [2]; compound 0.01 μM) | Percentage (arginine transport, control = 100) (Caco-2 cell monolayer [2]; compound 0.01 μM) [%] | Transport rate (arginine) (Caco-2 cell monolayer [2]; compound 0.01 μM) [nmol/min] | * (regulatory effect on arginine transport) (Caco-2 cell monolayer [2]; compound 0.1 μM) | Percentage (arginine transport, control = 100) (Caco-2 cell monolayer [2]; compound 0.1 μM) [%] | Transport rate (arginine) (Caco-2 cell monolayer [2]; compound 0.1 μM) [nmol/min] | Regulatory effects on the tryptophan transport across the Caco2 cell monolayer (Caco-2 cell monolayer [3]) | * (regulatory effect on tryptophan transport) (Caco-2 cell monolayer [3]; compound 0.01 μM) | Percentage (tryptophan transport, control = 100) (Caco-2 cell monolayer [3]; compound 0.01 μM) [%] | Transport rate (tryptophan) (Caco-2 cell monolayer [3]; compound 0.01 μM) [nmol/min] | also measured
1 | CC(C)(O)[C@@H]1CC[C@](C)([C@H]2[C@@H](O)C[C@@]3(C)[C@@H]4C[C@H](O[C@@H]5O[C@H](CO)[C@@H](O)[C@H](O)[C@H]5O)[C@H]5C(C)(C)[C@@H](O[C@@H]6OC[C@@H](O)[C@H](O)[C@H]6O[C@@H]6O[C@H](CO)[C@@H](O)[C@H](O)[C@H]6O)CC[C@@]56C[C@@]46CC[C@]23C)O1 [AS6, astragaloside VI] | had regulatory effects on the glucose uptake | ↑ | 119.84 | 7.6360 ± 1.7330 | ↑ | 109.97 | 7.0070 ± 1.9470 | 122.49 | 7.8050 ± 1.1830 | had regulatory effects on the arginine transport | ↑ | 130.35 | 13.9283 ± 1.7330 | ↑ | 140.36 | 14.9986 ± 1.3200 | had regulatory effects on the tryptophan transport | ↑ | 173.45 | 15.510 ± 0.3688 | * (regulatory effect on glucose uptake) (Caco2 cells [1]; compound 1 μM): ↑; * (regulatory effect on arginine transport) (Caco-2 cell monolayer [2]; compound 1 μM): ↑; Percentage (arginine transport, control = 100) (Caco-2 cell monolayer [2]; compound 1 μM): 127.22%; Transport rate (arginine) (Caco-2 cell monolayer [2]; compound 1 μM): 13.5942 ± 1.2760 nmol/min; Arginine transport rate (Caco-2 cell monolayer [2]; concentration from 0.01 μM to 1 μM): increased; * (regulatory effect on tryptophan transport) (Caco-2 cell monolayer [3]; compound 0.1 μM): ↑; Percentage (tryptophan transport, control = 100) (Caco-2 cell monolayer [3]; compound 0.1 μM): 151.87%; Transport rate (tryptophan) (Caco-2 cell monolayer [3]; compound 0.1 μM): 13.850 ± 0.6567 nmol/min; * (regulatory effect on tryptophan transport) (Caco-2 cell monolayer [3]; compound 1 μM): ↑; Percentage (tryptophan transport, control = 100) (Caco-2 cell monolayer [3]; compound 1 μM): 173.23%; Transport rate (tryptophan) (Caco-2 cell monolayer [3]; compound 1 μM): 15.490 ± 0.2161 nmol/min; Tryptophan transport rate (Caco-2 cell monolayer [3]; concentration from 0.01 μM to 1 mM): increased; * (regulatory effect on folate uptake) (Caco2 cells [4]): ↑; Percentage (folate uptake vs own control) (Caco2 cells [4]): 140.37%; Uptake rate (folate) (Caco2 cells [4]): 84.560 ± 4.7200 pmol/mg/min
2 | CC(=O)OC1C(O)COC(OC2CCC34CC35CCC3(C)C(C6(C)CCC(C(C)(C)O)O6)C(O)CC3(C)C5CC(OC3OC(CO)C(O)C(O)C3O)C4C2(C)C)C1OC(C)=O (stereo not shown) [AS1, astragaloside I] | had regulatory effects on the glucose uptake | ↑ | 146.75 | 9.3510 ± 1.1370 | ↑ | 122.82 | 7.8260 ± 1.7510 | 98.52 | 6.2780 ± 1.9930 | had regulatory effects on the arginine transport | ↑ | 151.91 | 16.2324 ± 0.7215 | ↑ | 147.21 | 15.7300 ± 1.1250 | had regulatory effects on the tryptophan transport | ↑ | 248.49 | 22.220 ± 0.8695 | * (regulatory effect on arginine transport) (Caco-2 cell monolayer [2]; compound 0.001 μM): ↑; Percentage (arginine transport, control = 100) (Caco-2 cell monolayer [2]; compound 0.001 μM): 133.37%; Transport rate (arginine) (Caco-2 cell monolayer [2]; compound 0.001 μM): 14.2554 ± 0.5851 nmol/min; Arginine transport rate (Caco-2 cell monolayer [2]; concentration from 0.001 μM to 0.1 μM): increased; * (regulatory effect on tryptophan transport) (Caco-2 cell monolayer [3]; compound 0.1 μM): ↑; Percentage (tryptophan transport, control = 100) (Caco-2 cell monolayer [3]; compound 0.1 μM): 258.67%; Transport rate (tryptophan) (Caco-2 cell monolayer [3]; compound 0.1 μM): 23.130 ± 1.3120 nmol/min; * (regulatory effect on tryptophan transport) (Caco-2 cell monolayer [3]; compound 1 μM): ↑; Percentage (tryptophan transport, control = 100) (Caco-2 cell monolayer [3]; compound 1 μM): 178.93%; Transport rate (tryptophan) (Caco-2 cell monolayer [3]; compound 1 μM): 16.000 ± 1.3190 nmol/min; Tryptophan transport rate (Caco-2 cell monolayer [3]; concentration from 0.01 μM to 0.1 mM): increased; Folate uptake versus control group (Caco2 cells [4]; 0.1 μM, FIG. 4): increased folate uptake; * (regulatory effect on folate uptake) (Caco2 cells [4]): ↑; Percentage (folate uptake vs own control) (Caco2 cells [4]): 150.00%; Uptake rate (folate) (Caco2 cells [4]): 79.710 ± 3.0410 pmol/mg/min
